Results on four compounds are retold here after patent publication US20020173541A1, “Arthropod-controlling composition” (SUMITOMO CHEMICAL COMPANY, LIMITED, priority 2001, published 2002).

The test system of the test is adult German cockroaches. The experiment in a line: Knock-down test: oil solution sprayed on adult German cockroaches. The class given is in vivo, Blattella germanica (German cockroach). Here is the method:
According to Production example 7, each of the 0.5% oil solutions of The Pyrone Compound and Reference compound 1 was prepared. A square of paper (side: 20 cm) was covered on the iron net set on the bottom of the metallic chamber (46 cm×46 cm, 70 cm in height). A container (8.75 cm in diameter, 7.5 cm in height, having 16-mesh net at the bottom and spreading butter on the wall for preventing escape) was set on the paper. In the container, ten (5 males and 5 females) adult German cockroaches were released. By means of spray gun, 1.5 ml of the above oil solution was applied to the test insects at pressure of 4.1×10^4 Pa from the upper part of the chamber. The container was taken out of the chamber 30 seconds after spraying and the test insects were transferred to a plastic cup. Two minutes after spraying, the knocked-down cockroaches were counted. According to Production example 7, each of the 0.25% oil solutions of The Pyrone Compound and Reference compounds 2 and 3 was prepared. The same procedures as Test Example 1 gave the knock-down percentages and KT50 values (minutes for knocked-down 50% of cockroaches) in Table 2.

[1] abbreviates: 0.25% oil solution, same procedures as Test Example 1, average of 6 (The Pyrone Compound) or 3 (references) repetitions.
Where [2] appears, read: 0.5% oil solution, 1.5 ml sprayed, knocked-down cockroaches counted two minutes after spraying.

For the compound `CCC(CC)C(=O)c1c(O)cc(C)oc1=O` [Reference compound 2, 4-hydroxy-6-methyl-3-(2-ethylbutanoyl)-2-pyrone], under setting [1], the “KT50 (minutes for knocked-down 50% of cockroaches)” value is “more than 10 minutes” and the “Knock-down percentage (%)” value turned out to be 0%.

Take `Cc1cc(O)c(C(=O)C(C)C)c(=O)o1` [Reference compound 1, 4-hydroxy-6-methyl-3-(2-methylpropanoyl)-2-pyrone]: the “Knock-down percentage (%)” value under setting [2] was found to be 10%.

In the case of `Cc1cc(O)c(C(=O)CC(C)C)c(=O)o1` [The Pyrone Compound, 4-hydroxy-6-methyl-3-(3-methylbutanoyl)-2-pyrone], under setting [1], the “KT50 (minutes for knocked-down 50% of cockroaches)” value amounted to 0.85 min and the “Knock-down percentage (%)” value worked out at 95%. Under setting [2], the “Knock-down percentage (%)” value amounted to 100%.

Turning to `Cc1cc(O)c(C(=O)C2CC2)c(=O)o1` [Reference compound 3, 4-hydroxy-6-methyl-3-(cyclopropanecarbonyl) -2-pyrone], under setting [1], the “KT50 (minutes for knocked-down 50% of cockroaches)” value is given as “more than 10 minutes” and the “Knock-down percentage (%)” value amounted to 6.7%.
